Reference: the supplement of paper PMC4862054

Tests used:
Assay in all cases: drug sensitivity score (DSS), CellTiter-Glo (DSS (AUC-based score)); higher = stronger drug effect (viability inhibition or cytotoxicity); extreme values may be limits of the assay
Conditions in all cases: incubation time: 72 h
CAL-51 = system: CAL-51
How it was run: (§1)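 Using 20 µl of cell suspension per well, breast cancer cell lines were seeded into 384-well plates pre-loaded with compound at 5 concentrations in 10-fold steps across a compound-specific 10,000-fold range. Incubation lasted 72 h, after which CellTox Green fluorescence at 485/520 nm and then CellTiter-Glo luminescence, following 10 min at room temperature, were recorded. Each plate was normalised to 0.1 % DMSO and a positive kill control before the drug sensitivity score was derived from the area under the fitted dose-response curve.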

HCC1937 = system: HCC1937
How it was run: as §1

CAL-85-1 = system: CAL-85-1
How it was run: as §1

HDQ-P1 = system: HDQ-P1
How it was run: as §1

MDA-MB-453 = system: MDA-MB-453
How it was run: as §1

HCC1143 = system: HCC1143
How it was run: as §1

CAL-148 = system: CAL-148
How it was run: as §1

CAL-120 = system: CAL-120
How it was run: as §1

DU-4475 = system: DU-4475
How it was run: as §1

BT-549 = system: BT-549
How it was run: as §1

MFM-223 = system: MFM-223
How it was run: as §1

MCF-10A = system: MCF-10A
How it was run: as §1

MDA-MB-468 = system: MDA-MB-468
How it was run: as §1

BT-474 = system: BT-474
How it was run: as §1

Hs578T = system: Hs578T
How it was run: as §1

HCC1599 = system: HCC1599
How it was run: as §1

MDA-MB-436 = system: MDA-MB-436
How it was run: as §1

MDA-MB-231 = system: MDA-MB-231
How it was run: as §1

SK-BR-3 = system: SK-BR-3
How it was run: as §1

Structure (SMILES)	drug sensitivity score (CAL-51)	drug sensitivity score (HCC1937)	drug sensitivity score (CAL-85-1)	drug sensitivity score (HDQ-P1)	drug sensitivity score (MDA-MB-453)	drug sensitivity score (HCC1143)	drug sensitivity score (CAL-148)	drug sensitivity score (CAL-120)	drug sensitivity score (DU-4475)	drug sensitivity score (BT-549)	drug sensitivity score (MFM-223)	drug sensitivity score (MCF-10A)	drug sensitivity score (MDA-MB-468)	drug sensitivity score (BT-474)	drug sensitivity score (Hs578T)	drug sensitivity score (HCC1599)	drug sensitivity score (MDA-MB-436)	drug sensitivity score (MDA-MB-231)	drug sensitivity score (SK-BR-3)
COc1ccc(-c2cc3c(C)nc(N)nc3n([C@H]3CC[C@H](OCCO)CC3)c2=O)cn1	22.6	15.1	18.5	18.7	21.9	17.2	17.1	17.1	12.4	18.7	17	18.3	18.8	16.4	18	9.17	14.4	18.4	22.1
Cc1c(Cn2c(C)nc3c(C(=O)O)cc(N4CCOCC4)cc32)cccc1C(F)(F)F	12.3	0	0	0	0	0	0	0	0	3.9	0	0	3.65	0	0	0	0.153	0	0
CC/C(=C(\c1ccc(O)cc1)c1ccc(OCCN(C)C)cc1)c1ccccc1 [4-hydroxytamoxifen]	0	3.45	3.01	0	1.86	0	0	1.84	0	2.89	1.9	0	4.87	0	0	0	1.6	2.63	1.4
CCCCC/C=C/C=C1/C(=O)C=C[C@@H]1C/C=C\CCCC(=O)O [15D-PGJ2]	0	0	0	0	0	0	0	0	0	0	0	0	0	0	0	0	0	0	0
O=C(Nc1c[nH]nc1-c1nc2ccc(CN3CCOCC3)cc2[nH]1)NC1CC1 [AT9283]	7.83	0	0	2.87	0	2.84	0	5.15	1.31	4.94	1.08	5.49	13.4	5.15	4.11	0	0	6.11	1.96
COc1cc(CCc2cc(NC(=O)c3ccc(N4CC(C)NC(C)C4)cc3)n[nH]2)cc(OC)c1 (stereo not given) [AZD4547]	0	0	0	0	0.805	0	0	3.61	0	0.487	12.2	1.73	0	0	0.967	0	0	0	0
CC(=O)OC[C@H]1O[C@@H]([S-])[C@H](OC(C)=O)[C@@H](OC(C)=O)[C@@H]1OC(C)=O.CCP(CC)CC.[Au+] [Auranofin]	11.7	7.45	6.05	3.9	6.93	5.15	1.24	0.998	1.74	9.2	2.71	1.42	14.9	1.22	3.87	1.36	5.88	4.38	1.76
CCC/C=C/C=C/C(=O)O[C@H]1/C(=C/C(=O)OC)C[C@H]2C[C@H]([C@@H](C)O)OC(=O)C[C@H](O)C[C@@H]3C[C@H](OC(C)=O)C(C)(C)[C@](O)(C[C@@H]4C/C(=C/C(=O)OC)C[C@H](/C=C/C(C)(C)[C@]1(O)O2)O4)O3 [Bryostatin 1]	6.93	0	0	1.62	0	0	0	0	0	0.294	0	0	0	1.75	4.68	0	0	0	10.8
CO[C@@H](C(=O)N1Cc2[nH]nc(NC(=O)c3ccc(N4CCN(C)CC4)cc3)c2C1)c1ccccc1 [Danusertib]	9.2	0	0	3.68	0	5.41	3.57	6.46	5.98	10.7	14.3	12	18.3	5.14	3.96	0	4.68	5.32	0
Cc1nc(Nc2ncc(C(=O)Nc3c(C)cccc3Cl)s2)cc(N2CCN(CCO)CC2)n1 [Dasatinib]	11.8	6.2	8.17	14.9	0	6.57	0	8.55	0	7.26	0	15.9	4.01	11.4	8.38	0	0.821	14.2	0
O=S(=O)(c1cccc2cnccc12)N1CCCNCC1 [Fasudil]	0	0	0	0	1.2	0	0	0	0.0897	1.25	0	0	0	0	0.0914	0	0	0	0
Cc1c(CN2CCN(C(=O)[C@H](C)O)CC2)sc2c(N3CCOCC3)nc(-c3cnc(N)nc3)nc12 [GDC-0980]	14.7	6.52	11.8	14.1	17.5	11.4	12.4	10.9	6.71	13.1	12.7	12.6	10.1	8.66	12.6	2.28	8.47	9.56	18.5
Cc1cccc(-c2nn3c(c2-c2ccnc4ccc(C(N)=O)cc24)CCC3)n1 [Galunisertib]	0.026	0	0	0	0	0	0	0	0	0	0	0	0	0	0	0	0	0	0
Nc1cccc2c1CN(C1CCC(=O)NC1=O)C2=O (stereo not given) [Lenalidomide]	0	0	0	0	0	0	0	2.82e-05	0	0	0	0	0	0	0	0	0	0	0
C[C@]12O[C@H](C[C@]1(O)CO)n1c3ccccc3c3c4c(c5c6ccccc6n2c5c31)CNC4=O [Lestaurtinib]	0.729	2.31	4.38	2.59	5.26	2.04	0	7.69	8.11	7.26	4.3	8.64	11.8	3.87	3.6	7.24	3.31	2.14	8.99
O=C1c2c(O)ccc(O)c2C(=O)c2c(NCCNCCO)ccc(NCCNCCO)c21 [Mitoxantrone]	2.13	0	0	0.578	0	0.675	3.82	0	2.92	0	0	0	0	0	0	0	5.91	0	0
Nc1ccccc1NC(=O)c1ccc(CNc2nccc(-c3cccnc3)n2)cc1 [Mocetinostat]	8.93	6.31	6.32	4.52	9.7	5.67	7.02	6.33	9	8.43	5.07	1.13	8.18	6.06	5.95	5.88	5.31	6.07	8.95
COc1nc(N)nc2c1ncn2[C@@H]1O[C@H](CO)[C@@H](O)[C@@H]1O [Nelarabine]	0	0	0	0	0	0	0	0	0	0	0	0	0	1.66	0	0	0.149	0	0
Cc1ccc(Nc2nccc(N(C)c3ccc4c(C)n(C)nc4c3)n2)cc1S(N)(=O)=O [Pazopanib]	0	0	0	0	0	0	0	0.234	0	2.29	6.2	0	0	0	0.162	0	0	0	0
CS(=O)(=O)N1CCN(Cc2cc3nc(-c4cccc5[nH]ncc45)nc(N4CCOCC4)c3s2)CC1 [Pictilisib]	10.1	5.69	8.59	11.9	13.1	7.14	8.61	7.47	1.25	9.15	7.5	13.3	6.39	6.27	7.69	0	5.3	6.01	14.2
